Assay results: patent US10610522B2, “Methods for retreating irritable bowel syndrome (IBS)” (Salix Pharmaceuticals, Inc., priority 2014, dated 2020)

What was measured:
d-IBS = experiment: IBS-QOL questionnaire in d-IBS patients, rifaximin 550 mg BID vs placebo; assay type: in vivo, human; details: Week 4
Method: Both groups received placebo for an additional 14 days after the initial 2-week treatment. Quality of life was assessed with the 34-item IBS-QOL questionnaire at baseline and 4 weeks after initiating treatment. Each item was scored on a 5-point scale (1=not at all; 2=slightly; 3=moderately; 4=quite a bit; and 5=extremely or a great deal). Results for composite and subscale scores were converted to a scale ranging from 0 to 100, with higher scores indicating better QOL.
Following a 2-week initial treatment period, both groups of patients received placebo for an additional 14 days. Quality of life was assessed via the 34-item IBS-QOL questionnaire at baseline and 4 weeks after initiating treatment. Each item was scored on a 5-point scale (1=not at all; 2=slightly; 3=moderately; 4=quite a bit; 5=extremely or a great deal); results for composite and subscale scores were converted to a scale ranging from 0 to 100, with higher scores indicating better QOL.

non-constipation IBS = experiment: Combined first and second studies (TARGET 1 and 2): pooled efficacy, sustained response and recurrence; assay type: in vivo, human; parameters: Responders: abdominal pain reduction of 2 point in median / Responders: abdominal pain reduction of 3 point in median / Responders: abdominal pain reduction of 1 point in weekly median / Responders: abdominal pain reduction of 1 point in weekly mean / Responders: abdominal pain reduction of 2 point in mean: concentration or dose not given beside the values
Method: A measure of efficacy is based on subjects' answers to the Weekly Subject Global Assessment (SGA) questions over the study duration in relation to their IBS symptoms.
An evaluation of the enrolled subjects was carried out after the Primary Evaluation Period in the study described in Examples 5-7. […] Subjects with no recurrence are defined as having a stool consistency score of less than 4, abdominal pain reduced by at least 30 percent or both.

[1] = rifaximin 1100 mg/d 14 d (n = 191)
[2] = Combined, at least 2 weeks during PEP
[3] = Rolling 2-5 Weeks, Rifaximin (N = 624), n (%)
[4] = Rolling 3-6 Weeks, Rifaximin (N = 624), n (%)
[5] = Rolling 4-7 Weeks, Rifaximin (N = 624), n (%)
[6] = Rolling 4 Weeks: 4-7 Weeks, N = 624
[7] = Rolling 4 Weeks: 5-8 Weeks, N = 624

CO[C@H]1/C=C/O[C@@]2(C)Oc3c(C)c(O)c4c(O)c(c5c(nc6cc(C)ccn65)c4c3C2=O)NC(=O)/C(C)=C\C=C\[C@H](C)[C@H](O)[C@@H](C)[C@@H](O)[C@@H](C)[C@H](OC(C)=O)[C@@H]1C [Rifaximin, (2S,16Z,18E,20S,21S,22R,23R,24R,25S,26S,27S,28E)-5,6,21,23,25 Pentahydroxy-27-methoxy-2,4,11,16,20,22,24,26-octamethyl-2,7-(epoxypentadeca-(1,11,13)trienimino) benzofuro (4,5-e) pyrido(1,2-a) benzimidazole-1,15(2H)-dione,25-acetate]
Improvement with rifaximin over placebo, IBS-QOL Body image (d-IBS; 1100 mg/d): 37.4%
Improvement with rifaximin over placebo, IBS-QOL Dysphoria (d-IBS; 1100 mg/d): 25.3%
Improvement with rifaximin over placebo, IBS-QOL Food avoidance (d-IBS; 1100 mg/d): 22.1%
Improvement with rifaximin over placebo, IBS-QOL Health worry (d-IBS; 1100 mg/d): 30.6%
Improvement with rifaximin over placebo, IBS-QOL Interference with activity (d-IBS; 1100 mg/d): 22.2%
Improvement with rifaximin over placebo, IBS-QOL Overall score (d-IBS; 1100 mg/d): 28.7%
Improvement with rifaximin over placebo, IBS-QOL Relationship (d-IBS; 1100 mg/d): 39.5%
Improvement with rifaximin over placebo, IBS-QOL Sexual (d-IBS; 1100 mg/d): 24.9%
Improvement with rifaximin over placebo, IBS-QOL Social reaction (d-IBS; 1100 mg/d): 31.6%
Mean change from baseline in IBS-QOL, Body image (d-IBS; [1]): 20.1
Mean change from baseline in IBS-QOL, Dysphoria (d-IBS; [1]): 24.8
Mean change from baseline in IBS-QOL, Food avoidance (d-IBS; [1]): 25.0
Mean change from baseline in IBS-QOL, Health worry (d-IBS; [1]): 16.0
Mean change from baseline in IBS-QOL, Interference with activity (d-IBS; [1]): 22.2
Mean change from baseline in IBS-QOL, Relationship (d-IBS; [1]): 14.9
Mean change from baseline in IBS-QOL, Sexual (d-IBS; [1]): 13.6
Mean change from baseline in IBS-QOL, Social reaction (d-IBS; [1]): 17.3
Mean change from baseline in IBS-QOL, Overall score (d-IBS; rifaximin 1100 mg/d 14 d (n = 191), 0-100 scale): 20.4
IBS symptom of bloating: adequate relief at least 2 out of 4 weeks during weeks 3 through 6 (weekly question) (non-constipation IBS; Combined): 40%
Global IBS symptoms: adequate relief at least 2 out of 4 weeks during weeks 3 through 6 (weekly question) (non-constipation IBS; Combined, 550 mg TID 14 d): 32% vs 41%
Responders: abdominal pain reduction of 1 point in weekly mean (non-constipation IBS; [2]): 52%
Responders: abdominal pain reduction of 1 point in weekly median (non-constipation IBS; [2]): 63%
Responders: abdominal pain reduction of 2 point in mean (non-constipation IBS; [2]): 25%
Responders: abdominal pain reduction of 2 point in median (non-constipation IBS; [2]): 39%
Responders: abdominal pain reduction of 3 point in mean (non-constipation IBS; [2]): 6% vs 7%
Responders: abdominal pain reduction of 3 point in median (non-constipation IBS; [2]): 21%
Responders: daily abdominal pain < 2 for at least 50% of days in a week (non-constipation IBS; [2]): 39%
Responders: overall reduction of mean weekly abdominal pain by >= 25% (non-constipation IBS; [2]): 57%
Responders: overall reduction of mean weekly abdominal pain by >= 50% (non-constipation IBS; [2]): 35%
Responders: overall reduction of mean weekly abdominal pain by >= 75% (non-constipation IBS; [2]): 14%
Responders: overall reduction of median weekly abdominal pain by >= 25% (non-constipation IBS; [2]): 62%
Responders: overall reduction of median weekly abdominal pain by >= 50% (non-constipation IBS; [2]): 44%
Responders: overall reduction of median weekly abdominal pain by >= 75% (non-constipation IBS; [2]): 21%
Sustained Durable Response (No Recurrence), Abdominal Pain & Stool Consistency: % of subjects (non-constipation IBS; N = 624): (33.2%)
Sustained Durable Response (No Recurrence), Abdominal Pain & Stool Consistency: number of subjects (non-constipation IBS; N = 624): 207
Sustained Durable Response (No Recurrence), Abdominal Pain: % of subjects (non-constipation IBS; N = 624): (35.7%)
Sustained Durable Response (No Recurrence), Abdominal Pain: number of subjects (non-constipation IBS; N = 624): 223
Sustained Durable Response (No Recurrence), Stool Consistency: % of subjects (non-constipation IBS; N = 624): (68.9%)
Sustained Durable Response (No Recurrence), Stool Consistency: number of subjects (non-constipation IBS; N = 624): 430
Abdominal Pain or Stool Consistency, Sustained Durable Response (non-constipation IBS; Rifaximin (N = 624), n (%)): 180 (28.8%)
Abdominal Pain or Stool Consistency, No Recurrence (non-constipation IBS; [3]): 286 (45.8%)
Abdominal Pain or Stool Consistency, Recurrence (non-constipation IBS; [3]): 12 (1.9%)
Abdominal Pain or Stool Consistency, No Recurrence (non-constipation IBS; [4]): 274 (43.9%)
Abdominal Pain or Stool Consistency, Recurrence (non-constipation IBS; [4]): 23 (3.7%)
Abdominal Pain or Stool Consistency, No Recurrence (non-constipation IBS; [5]): 251 (40.2%)
Abdominal Pain or Stool Consistency, Recurrence (non-constipation IBS; [5]): 17 (2.7%)
No Recurrence, Abdominal Pain & Stool Consistency: % of subjects (non-constipation IBS; [6]): (48.2%)
No Recurrence, Abdominal Pain & Stool Consistency: number of subjects (non-constipation IBS; [6]): 301
No Recurrence, Abdominal Pain: % of subjects (non-constipation IBS; [6]): (51.9%)
No Recurrence, Abdominal Pain: number of subjects (non-constipation IBS; [6]): 324
No Recurrence, Stool Consistency: % of subjects (non-constipation IBS; [6]): (78.8%)
No Recurrence, Stool Consistency: number of subjects (non-constipation IBS; [6]): 492
Recurrence, Abdominal Pain & Stool Consistency: % of subjects (non-constipation IBS; [6]): 3.7%
Recurrence, Abdominal Pain & Stool Consistency: number of subjects (non-constipation IBS; [6]): 23
Recurrence, Abdominal Pain: % of subjects (non-constipation IBS; [6]): 3.8%
Recurrence, Abdominal Pain: number of subjects (non-constipation IBS; [6]): 24
Recurrence, Stool Consistency: % of subjects (non-constipation IBS; [6]): 1.3%
Recurrence, Stool Consistency: number of subjects (non-constipation IBS; [6]): 8
No Recurrence, Abdominal Pain & Stool Consistency: % of subjects (non-constipation IBS; [7]): (44.6%)
No Recurrence, Abdominal Pain & Stool Consistency: number of subjects (non-constipation IBS; [7]): 278
No Recurrence, Abdominal Pain: % of subjects (non-constipation IBS; [7]): (48.1%)
No Recurrence, Abdominal Pain: number of subjects (non-constipation IBS; [7]): 300
No Recurrence, Stool Consistency: % of subjects (non-constipation IBS; [7]): (77.6%)
No Recurrence, Stool Consistency: number of subjects (non-constipation IBS; [7]): 484
